Among the data in ChEMBL document CHEMBL1141762, “Morphinane alkaloids with cell protective effects from Sinomenium acutum” (J Nat Prod, 2005) are Activity values, retold here.

Active and inactive are the calls of the source. No cut-off for these calls is given here.

The assay relates to PC-12. Put plainly: Cell protective activity against rat PC12 cells assessed as protection against H2O2-induced injury. It counts as functional, cell-based.

`COC1=C[C@]23CCN(C)[C@H](Cc4ccc(OC)c(O)c42)C3=CC1=O`: the result was Active. For the compound `COC1=C[C@H]2[C@H]3Cc4ccc(OC)c(O)c4[C@@]2(CCN3)CC1=O`, the outcome was Active.

With `COC1=C[C@H]2[C@H]3Cc4ccc(OC)c(O)c4[C@@]2(CCN3)C[C@@H]1O`, the outcome was Active.
